Results: publication PMC12196476, “New Nitrogen-, Oxygen-, and Sulfur-Containing Heterocyclic Compounds as Anti-Colon Cancer Agents: Synthesis, Multitargeted Evaluations, Molecular Docking Simulations and ADMET Predictions” (Pharmaceuticals, 2025)
Several values for one entry are separate records, joined by “and”; a condition that tells them apart may be missing. Equal values may be shown once.

Assays:
[1] = system: Bax, Bcl-2 and Casp-3 genes expression in LoVo cells; assay: qRT-PCR of Bax, Bcl-2 and Casp-3 gene expression, LoVo; format: cell-based, human; details: 30 µg/mL, 48 h
Method: To investigate molecular events downstream of ROS generation, we evaluated mRNA expression levels of key regulators of mitochondrial apoptosis—Bax and Bcl-2—using qRT-PCR. […] As a result, the Bax/Bcl-2 ratios were calculated to be 12.63 in LoVo cells and 8.71 in HCT-116 cells, reflecting a pronounced pro-apoptotic shift. This alteration in the Bax/Bcl-2 ratio strongly supports the activation of the mitochondrial apoptotic pathway.
To confirm activation of the execution phase of apoptosis, Casp-3 mRNA levels were evaluated by qRT-PCR.
The expression levels of these genes were determined using a quantitative real-time PCR technique. […]
S3.2.9. Quantification of the Expression Levels of Bax, Bcl-2 and Caspase-3 Genes
Human colon cancer cell lines (HCT-116 and LoVo) were cultured for 24 h in a 25 mL flask at
a density of 1 * 10^6 cells/flask as described in section S3.2.4. Cells were treated with 30 µg/mL
of compound 3d in 2 mL of fresh medium containing 1% FBS, or with 0.25 % DMSO as a
negative control, for 48 h. Afterwards, cells were washed with ice-cold phosphate-buffered
saline (PBS) and adherent cells were detached using trypsin solution.
Table S7 lists primers amplifying 100-200 bp of Bax, Bcl-2 and Caspase-3 genes. These primers
were designed using primer blast software (https://www.ncbi.nlm.nih.gov/tools/primer-
Table S7. Primer sequences for Bax, Bcl-2, Caspase-3, and GAPDH (control)
Gene Primer sequence (5’ to 3’)
Bcl-2 F 5’-[…] -3’,
Caspase 3 F 5’- […]-3’,
GAPDH F 5’- […]-3’
• Reverse-Transcription PCR (RT-PCR)
The total RNA was extracted from untreated and treated cells using the RNeasy Mini Kit
(Qiagen, DE). A Nanodrop 8000 spectrophotometer (Thermo Fisher Scientific, USA) was
used to check the RNA purity and quality. The Hyperscript Kit (GeneAll, KR) and random
hexamers (GeneAll, KR) were used as described in the manufacturer’s protocol to reverse-
transcript 1µg of RNA from each sample into cDNA.
• Quantitative real-time PCR
The mRNA expression of Bax, Bcl-2, and Caspase-3 were measured using QuantStudio
7Flex Detection System (Applied Biosystems, USA). The iScript One-Step RT-PCR Kit with
SYBR Green (Cat no: 170-8892; Bio-Rad, CA, USA) was used to carry out the reactions for
the synthesis of cDNA. Each cDNA sample (5 µl) was added in a 20 µL PCR mixture

[2] = system: LoVo cells; assay: Annexin V-FITC/PI apoptosis assay, LoVo; format: cell-based, human; details: 30 µg/mL, 48 h, Figure 3B plot
Method: Translocation of phosphatidylserine (PS) residues on the cell surface is an early apoptosis indicator, detectable through flow cytometric analysis and using double staining with propidium iodide (PI) dye and fluorescein isothiocyanate (FITC)-conjugated Annexin V (Annexin V-FITC). […]
μg/mL for 48 h. […]
(§1) S3.2.6. Annexin-V-FITC assay. […]
treatment with compound 3d. HCT-116 and LoVo cells were treated with vehicle (DMSO) and 3d […]
in Annexin-V binding buffer (BioVision Research Products, USA). The cells were then stained with Annexin V-FITC and propidium iodide (PI). Using the FITC signal detector (usually FL1) for […]
(§2) of stained cancerous cells were determined. […]

[3] = system: HCT-116 colon carcinoma cells; assay: Cell viability, LDH release assay, HCT-116; details: Homo sapiens, HCT-116, 48 h
[4] = system: HCT-116 cells; assay: Intracellular ROS level (human ROS ELISA kit), HCT-116; format: cell-based; details: 30 µg/mL, 48 h
Method: To determine whether compound 3d induces oxidative stress, intracellular ROS levels were quantified after treatment (30 µg/mL, 48 h) using a human ROS ELISA kit.
A Human ROS ELISA Kit was used to measure the intracellular accumulation of ROS in the 3d-treated LoVo and HCT-116 cells. […]
medium served used as negative and positive controls, respectively. Percentages of viable cells […]
wells (final concentration of 100 μg/mL), compared to the negative control, and expressed as mean value (%) ± SD from two replicates. Graphing dose-response curves representing the compound […]
(HUVECs) at final concentration of 100 μg/mL . HUVECs were grown in Dulbecco’s Modified Eagle’s Medium supplemented with 10% FBS, 2 mM glutamine (Sigma Aldrich), 100 units/mL penicillin and […] streptomycin (Life Technologies; Paisley, UK).
S3.2.5. Cell cycle assay.
HCT-116 and LoVo cultures upon treatment with compound 3d. HCT-116 and LoVo carcinoma […]
μg/mL for 48 h. […] Then, cells […]
were fixed by mixing […] of 90% cold ethanol and stained with propidium iodide (PI) for 1 h at 37 °C. RNase A (10 mg/mL) was added in order to […] the ability of PI to bind only to DNA […]
as §1
treatment with compound 3d. […]
as §2
carcinoma cells treated with compound 3d was assessed using the TMRE Mitochondrial Membrane

[5] = relative to untreated controls, normalized to GAPDH

With `COc1cc(/C=N/c2ncnc3sc4c(c23)CCCC4)cc(OC)c1OC` [Compound 3d, (E)-N-(5,6,7,8-Tetrahydrobenzo[4,5]thieno[2,3-d]pyrimidin-4-yl)-1-(3,4,5-trimethoxyphenyl)methanimine] the “Bax/Bcl-2 ratio, LoVo cells” value [1] was 12.63, the “Bax mRNA expression, fold of control (LoVo)” value [1, 5] was 3.03 ± 0.41 fold and the “Bcl-2 mRNA expression, fold of control (LoVo)” value [1, 5] was 0.24 ± 0.03 fold. For the same molecule, the “Casp-3 mRNA expression, fold of control (LoVo)” value [1, 5] was 5.35 ± 0.33 fold, the “Necrotic population (Annexin-V−/PI+), LoVo” value [2] was 4.14% and the “Late apoptotic cells (both Annexin-V and PI positive), LoVo” value ([2]; control 0.09%) was 9.92%. For the same molecule, the “Early apoptotic cells (Annexin V-FITC positive and PI negative), LoVo” value ([2]; control 0.44%) was 17.12%, the viability at 100 µg/mL ([3]; read-out: Mean % of viable cells ± SD, HCT-116, 100 µg/mL, 48 h, LDH release assay) was < 29% and the IC50 ([3]; read-out: Mean IC50 Values in µM ± SD, HCT-116 cells) was 161 µM. The “ROS, Fold of control, HCT-116” value [4] was 2.0 and the “[ROS] pg/mL ± SD, HCT-116” value ([4]; control 143.5 ± 6.8, two independent experiments) was 290.1 ± 12.7 pg/mL and 290.1 pg/mL.
